Values of other authors, collected in patent publication US20210169807A1, “PHARMACEUTICAL COMPOSITION COMPRISING AN ATYPICAL ANTIPSYCHOTIC AGENT AND METHOD FOR THE PREPARATION THEREOF” (priority 2018, published 2021).
Read-outs that look alike come from different tables or passages of the source.

- solubility (in 0.1N HCl): slightly soluble
- solubility (in dichloromethane): sparingly soluble
- solubility (in water): insoluble
SMILES: Cc1nc2n(c(=O)c1CCN1CCC(c3noc4cc(F)ccc34)CC1)CCCC2O (stereo not drawn) [Paliperidone, 3-[2-[4-(6-fluoro-1,2-benzisoxazol-3-yl)-1-piperidinyl]ethyl]-6,7,8,9-tetrahydro-9-hydroxy-2-methyl-4H-pyrido[1,2-a]pyrimidin-4-one]
